Measurements as given in US9399631B2, “Polyphenol proteasome inhibitors, synthesis, and methods of use” (UNIVERSITY OF SOUTH FLORIDA, priority 2003, dated 2016).

Tests used:
[1] = test system: LNCaP cells; assay: Flow cytometry cell cycle analysis, LNCaP cells; type: cell-based, human; conditions: 10 μM, 24 hours
Description: Flow Cytometry. Cell cycle analysis based on DNA content was performed as in An et al. (An, B. et al. Cell Death Differ, 1998, 5:1062-75). At each time point, cells were harvested, counted, and washed twice with PBS. Cells (5×10^6) were suspended in 0.5 ml PBS, fixed in 5 ml of 70% ethanol overnight at −20° C., centrifuged, resuspended again in 1 ml of propidium iodide staining solution (50 μg propidium iodide, 100 units RNase A and 1 mg glucose per ml PBS), and incubated at room temperature for 30 minutes. The cells were then analyzed with FACScan (Becton Dickinson Immunocytometry, Calif.), ModFit LT and WinMDI V.2.8 cell cycle analysis software (Verity Software; Topsham, Me.). The cell cycle distribution is shown as the percentage of cells containing G1, S, G2, and M phase DNA judged by propidium iodide staining The apoptotic population is determined as the percentage of cells with sub-G1 DNA content (<G1).
It has been shown that overexpression of p27 and IκB-α results in G1 arrest. If increased levels of these proteasome target proteins by synthetic GTPs are functional, it would be expected to see growth arrest of tumor cells in G1 phase. To test this hypothesis, asynchronous prostate LNCaP cells were treated with 10 μM of synthetic (+)-EGCG or (+)-GCG, along with each respective natural GTP as control, for 24 hours. Cells were then harvested, and analyzed by cell cycle analysis by flow cytometry. […] Growth arrest was determined by the increase in the percentage of the G1 population.

[2] = target: T1, 20S eukaryotic proteasome (Oryctolagus cuniculus, UniProt G1T4Q9); assay: Inhibition of chymotrypsin-like activity of purified eukaryotic 20S proteasome (Suc-Leu-Leu-Val-Tyr-AMC); type: biochemical, rabbit; conditions: for IC50: chymotrypsin-like activity, rabbit 20S proteasome
T1 construct: purchased BOSTON BIOCHEM (Cambridge, Mass.)
T1 sequence (G1T4Q9 1-263): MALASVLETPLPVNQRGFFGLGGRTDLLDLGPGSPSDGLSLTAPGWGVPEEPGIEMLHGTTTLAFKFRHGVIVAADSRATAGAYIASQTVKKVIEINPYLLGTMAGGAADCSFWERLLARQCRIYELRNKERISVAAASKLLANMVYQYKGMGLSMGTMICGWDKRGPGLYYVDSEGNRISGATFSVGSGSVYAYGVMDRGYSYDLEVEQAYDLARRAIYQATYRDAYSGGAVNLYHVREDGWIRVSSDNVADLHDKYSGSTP
Method in brief: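 Purified rabbit 20S proteasome (0.02 μg) incubated with 20 μM Suc-LLVY-AMC for 30 min at 37° C in Tris-HCl pH 7.5, with or without compound. Chymotrypsin-like activity read as released AMC fluorescence (Ex 380 or 355 nm/Em 460 nm).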

| Compound | increase of G1 population (G1 arrest) [1] | IC50 [2] | reversal of proteasome inhibition by SDS ([2]; 1 μM, 0.01% SDS added after 1 hour (SDS-post)) | inhibition of chymotrypsin-like activity ([2]; 1 μM, 5 min) | inhibition of chymotrypsin-like activity ([2]; 1 μM, 30 min) | inhibition of chymotrypsin-like activity ([2]; 1 μM, after 1 to 3 hours) | inhibition of chymotrypsin-like activity ([2]; 1 μM, no SDS) | inhibition of chymotrypsin-like activity ([2]; 1 μM, pre-incubation with 0.01% SDS for 1 hour (SDS-pre)) | increase in G1 arrest as compared to (−)-EGCG [1] |
| --- | --- | --- | --- | --- | --- | --- | --- | --- | --- |
| O=C(OC1Cc2c(O)cc(O)cc2OC1c1cc(O)c(O)c(O)c1)c1cc(O)c(O)c(O)c1 (single isomer, unassigned; (+)) [(+)-GCG] | ~14% | 270 nM | – | – | – | – | – | – | – |
| O=C(O[C@@H]1Cc2c(O)cc(O)cc2O[C@@H]1c1cc(O)c(O)c(O)c1)c1cc(O)c(O)c(O)c1 [(−)-EGCG, (−)-epigallocatechin-3-gallate, reference compound] | ~14% | 205 nM | could not reverse the EGCG-mediated proteasome inhibition | 35% | 62% | 70-80% | up to 75% | 10-20% | – |
| O=C(OC1Cc2c(O)cc(O)cc2OC1c1cc(O)c(O)c(O)c1)c1cc(O)c(O)c(O)c1 (single isomer, unassigned; (+)) [(+)-EGCG] | 18% | 170 nM | – | – | – | – | – | – | approximately 30% |
| O=C(N[C@@H]1Cc2c(O)cc(O)cc2O[C@@H]1c1cc(O)c(O)c(O)c1)c1cc(O)c(O)c(O)c1 [(−)-EGCG-amide, (−)-[2R,3R]-N-[5,7-Dihydroxy-2-(3,4,5-trihydroxyphenyl)-chroman-3-yl]-3,4,5-trihydroxybenzamide] | – | 320 nM | – | – | – | – | – | – | – |
